Data published in patent US8592172B2, “Bioluminescent assays using cyanobenzothiazole compounds” (Promega Corporation, priority 2010, dated 2013).

Legend:
[1] = test system: UGT isozymes; conditions: UGT isozymes currently reported in the literature; cited from earlier work
[2] = target: T1, UGT 1A1 (Homo sapiens, UniProt P22309); assay: Inhibition of recombinant UGT 1A1 Supersomes, compound 3138 as substrate; format: biochemical; conditions: 20 μM compound 3138, 0.1 mg/mL Supersomes, 90 minutes at 37° C.
T1 construct: purchased BD Gentest; host or cells: insect cells (microsomes)
T1 sequence (P22309 26-533): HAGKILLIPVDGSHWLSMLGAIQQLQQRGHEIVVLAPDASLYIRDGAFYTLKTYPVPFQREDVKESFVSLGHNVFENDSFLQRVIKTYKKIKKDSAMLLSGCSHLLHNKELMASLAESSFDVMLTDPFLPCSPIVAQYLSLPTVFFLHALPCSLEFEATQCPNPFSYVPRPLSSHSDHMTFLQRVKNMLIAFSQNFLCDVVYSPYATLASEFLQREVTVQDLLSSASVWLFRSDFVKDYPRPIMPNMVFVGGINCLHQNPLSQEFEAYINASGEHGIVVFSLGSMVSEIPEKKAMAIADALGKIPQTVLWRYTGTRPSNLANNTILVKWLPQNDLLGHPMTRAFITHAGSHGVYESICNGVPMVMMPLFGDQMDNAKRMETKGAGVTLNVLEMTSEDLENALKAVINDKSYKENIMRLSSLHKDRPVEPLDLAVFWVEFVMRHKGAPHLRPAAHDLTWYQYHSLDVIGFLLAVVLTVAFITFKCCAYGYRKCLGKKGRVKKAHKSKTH
Description: Following the UGT enzyme reaction, an equal volume of P450-Glo Luciferin Detection Reagent (LDR) (Promega) containing 15-30 mM D-cysteine-HCl.H2O (Sigma) was added and the plate was mixed and incubated at room temperature, typically for 20-30 minutes. P450-Glo Luciferin Detection Reagent contains a luciferase reaction mixture that includes a recombinant firefly luciferase, ATP and Mg^2+.
After 2 hours at 37° C., 10 μL of 50 mM D-cysteine-HCl.H2O diluted in 200 mM HEPES, pH 8.0 was added to each 40 μL UGT reaction. After 10 minute incubations, 50 μL P450-Glo LDR (Promega) was added to each well, and bioluminescence was measured.
After 90 minutes at 37° C., 40 μL of P450-Glo LDR plus 20 mM D-cysteine was added to each 40 μL reaction and mixed. After 20 minutes at room temperature, bioluminescence was measured on a luminometer.

[3] = test system: UGT activity in human liver microsomes (HLM); assay: Inhibition of UGT activity in human liver microsomes, compound 3138 as substrate; format: biochemical; conditions: 50 μM compound 3138, 0.1 mg/mL HLM, 15 minutes at 37° C.; read-out: IC50 for HLM utilization of compound 3138
Description: To assess the ability of these compounds to inhibit UGT activity in HLM, reactions were set up as follows. […] Sulfinpyrazone, quinidine, and androsterone were used at a final concentration of 0.5 mM. 1-Naphthol, scopoletin, umbelliferne, and 7-hydroxy-4-trifluoromethyl coumarin were used at a final concentration of 1 mM. […] Valproate was used at a final concentration of 10 mM. All reactions were compared to their corresponding vehicle control sample containing either water, DMSO, or ethanol.

[4] = test system: UGT isozymes in human hepatocytes
[5] = test system: rat liver microsomes; assay: Utilization of compound 3165 by rat liver microsomes; format: biochemical; conditions: 50 μM compound 3165, 0.2 mg/mL microsomes, 2 hours at 37° C.
Description: (§1) The ability of endogenously expressed UGT isozymes to utilize compounds 3138 and 3165 as substrates was determined in a similar manner to the assays with recombinant microsomes (Example 1). […] Tissue microsomes were obtained from Xenotech LLC or BD Gentest. Addition of P450-Glo LDR plus cysteine and data analysis was performed in the same manner as for the recombinant Supersome panel screen (Example 1 above).

[6] = test system: mouse liver microsomes; assay: Utilization of compound 3165 by mouse liver microsomes; format: biochemical; conditions: 50 μM compound 3165, 0.2 mg/mL microsomes, 2 hours at 37° C.
Description: as §1

[7] = test system: human liver microsomes; assay: Utilization of compound 3165 by human microsomes; format: biochemical; conditions: 50 μM compound 3165, 0.2 mg/mL microsomes, 2 hours at 37° C.
Description: as §1

[8] = target: T2, UGT 1A9 (Homo sapiens, UniProt O60656); assay: Recombinant UGT panel, substrate utilization; format: biochemical; conditions: 2 hour incubation at 37° C., recombinant Supersomes, background corrected
T2 construct: purchased BD Gentest; host or cells: insect cells (microsomes)
T2 sequence (O60656 26-530): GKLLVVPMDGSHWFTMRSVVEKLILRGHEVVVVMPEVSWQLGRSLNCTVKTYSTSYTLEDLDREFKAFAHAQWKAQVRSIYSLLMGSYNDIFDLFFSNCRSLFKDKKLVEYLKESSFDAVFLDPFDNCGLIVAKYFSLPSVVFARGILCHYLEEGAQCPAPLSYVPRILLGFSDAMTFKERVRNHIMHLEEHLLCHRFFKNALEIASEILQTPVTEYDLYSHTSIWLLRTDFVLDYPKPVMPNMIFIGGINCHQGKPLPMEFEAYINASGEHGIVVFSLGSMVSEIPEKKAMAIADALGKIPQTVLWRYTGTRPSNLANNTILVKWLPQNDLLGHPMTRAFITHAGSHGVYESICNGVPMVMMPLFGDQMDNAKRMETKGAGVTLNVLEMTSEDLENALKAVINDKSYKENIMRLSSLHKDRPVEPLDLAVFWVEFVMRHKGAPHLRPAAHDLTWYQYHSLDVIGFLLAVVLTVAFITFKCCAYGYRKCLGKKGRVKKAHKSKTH
Description: (§2) During this incubation, the cysteine reacts with the cyanobenzathiozole substrate to yield a D-luciferin derivative. […] Therefore, activity of the UGT enzyme can be measured by analyzing the difference (lower or no output) in relative light units (RLU) of a sample in which glucuronidation occurs compared to a sample that was run under the same conditions with no added UDPGA cofactor.
(§3) In this example, a series of 12 recombinant UGTs expressed in insect microsomes (Supersomes™, BD Gentest™), as well as the control microsomes not expressing the UGT enzyme, were incubated with compound 3138, compound 3478, or compound 3165 as substrates, with or without the UDPGA co-factor.
(§4) After addition of a luciferin detection reagent (LDR) containing D-cysteine, both the substrate and the product were converted to D-luciferins (compound 3478 is already a luciferin derivative before addition of the LDR).
(§5) Reactions were assembled in a white, 96-well plate. Each well contained 20 μL of reaction mixture comprised of 100 mM TES, pH 7.5, 16 mM MgCl2, 50 μg/mL alamethicin (Sigma), 60 μM compound 3138 or compound 3478, and 0.4 mg/mL of control or recombinant UGT membranes. The reactions were initiated by addition of 20 μL of water or 8 mM triammonium UDPGA (Sigma) to each well. The plate was mixed, sealed, and incubated in a 37° C. water bath for 2 hours. After the incubation, 40 μL P450-Glo LDR (Promega) with 20 mM D-cysteine-HCl.H2O (Sigma) was added to each well, the plate was mixed and allowed to incubate at room temperature for 20 minutes. After the incubation was completed, the plate was read on a Veritas™ luminometer (Turner BioSystems, Inc.; Sunnyvale, Calif.).
(§6) For each isozyme, the bioluminescence from the replicates containing UDPGA were subtracted from the average bioluminescence of the replicates without UDPGA. The average Δ RLU value obtained and the standard deviation of the replicates were then divided by the average bioluminescence for samples without UDPGA to obtain the % utilization for each isozyme. The % utilization obtained from the control microsomes was then subtracted from each isozyme to give the background corrected utilization data for those isozymes.

[9] = target: T3, UGT 1A4 (Homo sapiens, UniProt P22310); assay: Recombinant UGT panel, substrate utilization; format: biochemical; conditions: 2 hour incubation at 37° C., recombinant Supersomes
T3 construct: purchased BD Gentest; host or cells: insect cells (microsomes)
T3 sequence (P22310 29-534): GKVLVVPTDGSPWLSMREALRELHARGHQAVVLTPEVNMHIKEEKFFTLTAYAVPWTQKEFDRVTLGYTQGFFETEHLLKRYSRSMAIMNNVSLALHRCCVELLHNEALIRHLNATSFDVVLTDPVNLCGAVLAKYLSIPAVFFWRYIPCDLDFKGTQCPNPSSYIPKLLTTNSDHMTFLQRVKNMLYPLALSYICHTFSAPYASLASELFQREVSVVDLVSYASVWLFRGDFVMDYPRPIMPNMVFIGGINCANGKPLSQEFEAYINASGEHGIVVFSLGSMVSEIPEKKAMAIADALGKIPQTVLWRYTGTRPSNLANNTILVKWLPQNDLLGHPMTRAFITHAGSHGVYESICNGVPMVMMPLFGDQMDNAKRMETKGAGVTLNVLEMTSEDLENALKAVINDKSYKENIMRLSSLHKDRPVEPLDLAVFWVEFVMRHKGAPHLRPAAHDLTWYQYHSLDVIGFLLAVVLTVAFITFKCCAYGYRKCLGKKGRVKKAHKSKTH
Description: as §2, §3, §4, §5, §6

[10] = test system: endogenously expressed UGT isozymes in mammalian microsomes; assay: Utilization of compound 3138 by mammalian tissue microsomes; format: biochemical; conditions: 50 μM compound 3138, 0.1 mg/mL mammalian microsomes, 15 minutes at 37° C.
Description: as §1

[11] = target: UGT 2B7 (Homo sapiens, UniProt P16662); assay: Recombinant UGT panel, substrate utilization; format: biochemical; parameters: purchased BD Gentest; host or cells: insect cells (microsomes); conditions: 2 hour incubation at 37° C., recombinant Supersomes, background corrected
UGT 2B7, sequence (P16662 24-529): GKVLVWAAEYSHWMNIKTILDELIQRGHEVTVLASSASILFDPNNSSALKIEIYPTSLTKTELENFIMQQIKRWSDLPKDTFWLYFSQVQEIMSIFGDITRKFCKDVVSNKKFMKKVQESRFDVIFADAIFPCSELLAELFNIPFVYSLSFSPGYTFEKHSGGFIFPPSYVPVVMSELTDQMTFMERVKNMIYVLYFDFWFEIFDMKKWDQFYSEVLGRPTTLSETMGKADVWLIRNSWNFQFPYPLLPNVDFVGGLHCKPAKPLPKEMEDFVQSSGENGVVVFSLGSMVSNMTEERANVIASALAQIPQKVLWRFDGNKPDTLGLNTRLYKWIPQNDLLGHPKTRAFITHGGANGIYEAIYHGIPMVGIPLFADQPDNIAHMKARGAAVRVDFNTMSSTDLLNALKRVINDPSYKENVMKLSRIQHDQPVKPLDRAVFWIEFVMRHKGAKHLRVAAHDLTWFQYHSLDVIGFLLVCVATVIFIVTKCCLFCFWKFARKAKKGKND
Description: as §2, §3, §4
Reactions were assembled in a white, 96-well plate. Each well contained 20 μL of reaction mixture comprised of 100 mM TES, pH 7.5, 16 mM MgCl2, 50 μg/mL alamethicin (Sigma), 60 μM compound 3138 or compound 3478, and 0.4 mg/mL of control or recombinant UGT membranes. The reactions were initiated by addition of 20 μL of water or 8 mM triammonium UDPGA (Sigma) to each well. […] After the incubation was completed, the plate was read on a Veritas™ luminometer (Turner BioSystems, Inc.; Sunnyvale, Calif.). […]

[12] = target: T1, UGT 1A1; assay: Recombinant UGT panel, substrate utilization; format: biochemical; conditions: 2 hour incubation at 37° C., recombinant Supersomes, background corrected
Description: as §2, §3, §4, §5, §6

[13] = target: T4, UGT 1A3 (Homo sapiens, UniProt P35503); assay: Recombinant UGT panel, substrate utilization; format: biochemical; conditions: 2 hour incubation at 37° C., recombinant Supersomes
T4 construct: purchased BD Gentest; host or cells: insect cells (microsomes)
T4 sequence (P35503 29-534): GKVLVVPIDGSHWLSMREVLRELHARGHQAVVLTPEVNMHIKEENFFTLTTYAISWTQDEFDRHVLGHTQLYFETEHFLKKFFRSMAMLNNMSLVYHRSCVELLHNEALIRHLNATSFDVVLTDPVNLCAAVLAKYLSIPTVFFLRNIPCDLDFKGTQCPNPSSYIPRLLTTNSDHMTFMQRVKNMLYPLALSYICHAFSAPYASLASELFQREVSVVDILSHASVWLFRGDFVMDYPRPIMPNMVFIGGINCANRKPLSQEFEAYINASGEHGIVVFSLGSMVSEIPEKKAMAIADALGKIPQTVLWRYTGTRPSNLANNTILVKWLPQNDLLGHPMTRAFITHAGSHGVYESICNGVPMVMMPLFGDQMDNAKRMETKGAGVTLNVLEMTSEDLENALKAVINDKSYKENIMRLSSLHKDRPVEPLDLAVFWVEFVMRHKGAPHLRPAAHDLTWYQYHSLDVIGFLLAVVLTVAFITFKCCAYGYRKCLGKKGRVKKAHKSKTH
Description: as §2, §3, §4, §5, §6

[14] = target: T5, UGT 2B4 (Homo sapiens, UniProt P06133); assay: Recombinant UGT panel, substrate utilization; format: biochemical; conditions: 2 hour incubation at 37° C., recombinant Supersomes
T5 construct: purchased BD Gentest; host or cells: insect cells (microsomes)
T5 sequence (P06133 24-528): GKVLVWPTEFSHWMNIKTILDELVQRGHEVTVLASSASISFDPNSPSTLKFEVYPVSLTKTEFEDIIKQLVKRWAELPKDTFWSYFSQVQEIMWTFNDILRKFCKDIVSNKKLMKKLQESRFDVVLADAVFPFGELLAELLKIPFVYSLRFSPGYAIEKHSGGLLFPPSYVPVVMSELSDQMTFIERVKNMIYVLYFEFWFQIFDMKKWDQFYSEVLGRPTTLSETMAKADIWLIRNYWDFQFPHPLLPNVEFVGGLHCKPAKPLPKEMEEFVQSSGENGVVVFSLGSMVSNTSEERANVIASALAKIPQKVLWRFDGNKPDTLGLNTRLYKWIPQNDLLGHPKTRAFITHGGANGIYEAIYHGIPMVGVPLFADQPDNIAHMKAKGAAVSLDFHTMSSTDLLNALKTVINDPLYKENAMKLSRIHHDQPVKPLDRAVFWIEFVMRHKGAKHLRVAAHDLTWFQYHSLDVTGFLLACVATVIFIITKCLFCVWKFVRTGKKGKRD
Description: as §2, §3, §4, §5, §6

[15] = target: T6, UGT 2B17 (Homo sapiens, UniProt O75795); assay: Recombinant UGT panel, substrate utilization; format: biochemical; conditions: 2 hour incubation at 37° C., recombinant Supersomes
T6 construct: purchased BD Gentest; host or cells: insect cells (microsomes)
T6 sequence (O75795 24-530): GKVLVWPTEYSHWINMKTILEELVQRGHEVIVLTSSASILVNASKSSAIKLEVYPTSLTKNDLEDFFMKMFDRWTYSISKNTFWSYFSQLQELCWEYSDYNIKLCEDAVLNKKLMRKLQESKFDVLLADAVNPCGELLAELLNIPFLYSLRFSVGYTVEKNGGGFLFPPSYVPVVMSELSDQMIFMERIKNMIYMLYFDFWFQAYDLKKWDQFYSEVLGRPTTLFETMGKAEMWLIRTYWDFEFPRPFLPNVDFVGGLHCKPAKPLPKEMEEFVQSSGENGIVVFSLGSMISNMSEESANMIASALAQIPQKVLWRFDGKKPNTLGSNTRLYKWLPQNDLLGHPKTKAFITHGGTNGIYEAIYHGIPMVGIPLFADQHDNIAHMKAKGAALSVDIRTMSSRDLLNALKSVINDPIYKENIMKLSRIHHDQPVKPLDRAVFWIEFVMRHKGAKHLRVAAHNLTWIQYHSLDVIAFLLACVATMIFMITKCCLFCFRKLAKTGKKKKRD
Description: as §2, §3, §4, §5, §6

[16] = target: T7, UGT 2B15 (Homo sapiens, UniProt P54855); assay: Recombinant UGT panel, substrate utilization; format: biochemical; conditions: 2 hour incubation at 37° C., recombinant Supersomes
T7 construct: purchased BD Gentest; host or cells: insect cells (microsomes)
T7 sequence (P54855 24-530): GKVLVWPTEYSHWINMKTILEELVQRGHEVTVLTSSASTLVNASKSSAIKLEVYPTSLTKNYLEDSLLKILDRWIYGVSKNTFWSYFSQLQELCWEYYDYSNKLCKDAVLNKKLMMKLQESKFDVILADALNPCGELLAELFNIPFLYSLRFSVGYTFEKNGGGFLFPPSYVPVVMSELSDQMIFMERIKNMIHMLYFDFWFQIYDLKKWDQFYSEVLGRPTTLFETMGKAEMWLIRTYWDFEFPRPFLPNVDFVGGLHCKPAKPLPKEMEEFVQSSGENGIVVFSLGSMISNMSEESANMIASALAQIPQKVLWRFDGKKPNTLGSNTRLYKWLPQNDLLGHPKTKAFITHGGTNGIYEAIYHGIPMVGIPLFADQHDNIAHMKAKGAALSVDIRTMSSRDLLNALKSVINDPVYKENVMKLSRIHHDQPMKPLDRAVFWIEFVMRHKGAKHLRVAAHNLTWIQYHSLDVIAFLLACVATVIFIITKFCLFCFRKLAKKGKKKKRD
Description: as §2, §3, §4, §5, §6

[17] = target: T8, UGT 1A10 (Homo sapiens, UniProt Q9HAW8); assay: Recombinant UGT panel, substrate utilization; format: biochemical; conditions: 2 hour incubation at 37° C., recombinant Supersomes, background corrected
T8 construct: purchased BD Gentest; host or cells: insect cells (microsomes)
T8 sequence (Q9HAW8 26-530): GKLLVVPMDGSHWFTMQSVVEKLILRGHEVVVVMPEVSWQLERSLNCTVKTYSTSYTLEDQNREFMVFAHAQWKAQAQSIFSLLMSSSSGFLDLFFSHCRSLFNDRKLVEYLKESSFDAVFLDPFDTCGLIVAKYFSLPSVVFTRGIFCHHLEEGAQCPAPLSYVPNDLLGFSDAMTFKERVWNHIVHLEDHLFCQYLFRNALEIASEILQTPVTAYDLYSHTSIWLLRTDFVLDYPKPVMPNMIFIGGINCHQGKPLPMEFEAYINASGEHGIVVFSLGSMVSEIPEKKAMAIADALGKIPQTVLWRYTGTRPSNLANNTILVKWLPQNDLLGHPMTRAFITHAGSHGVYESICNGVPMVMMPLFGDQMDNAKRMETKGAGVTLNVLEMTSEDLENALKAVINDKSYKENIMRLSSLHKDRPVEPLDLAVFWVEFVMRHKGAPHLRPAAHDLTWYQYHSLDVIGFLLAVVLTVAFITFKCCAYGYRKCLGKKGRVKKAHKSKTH
Description: as §2, §3, §4, §5, §6

[18] = target: T9, UGT 1A8 (Homo sapiens, UniProt Q9HAW9); assay: Recombinant UGT panel, substrate utilization; format: biochemical; conditions: 2 hour incubation at 37° C., recombinant Supersomes, background corrected
T9 construct: purchased BD Gentest; host or cells: insect cells (microsomes)
T9 sequence (Q9HAW9 26-530): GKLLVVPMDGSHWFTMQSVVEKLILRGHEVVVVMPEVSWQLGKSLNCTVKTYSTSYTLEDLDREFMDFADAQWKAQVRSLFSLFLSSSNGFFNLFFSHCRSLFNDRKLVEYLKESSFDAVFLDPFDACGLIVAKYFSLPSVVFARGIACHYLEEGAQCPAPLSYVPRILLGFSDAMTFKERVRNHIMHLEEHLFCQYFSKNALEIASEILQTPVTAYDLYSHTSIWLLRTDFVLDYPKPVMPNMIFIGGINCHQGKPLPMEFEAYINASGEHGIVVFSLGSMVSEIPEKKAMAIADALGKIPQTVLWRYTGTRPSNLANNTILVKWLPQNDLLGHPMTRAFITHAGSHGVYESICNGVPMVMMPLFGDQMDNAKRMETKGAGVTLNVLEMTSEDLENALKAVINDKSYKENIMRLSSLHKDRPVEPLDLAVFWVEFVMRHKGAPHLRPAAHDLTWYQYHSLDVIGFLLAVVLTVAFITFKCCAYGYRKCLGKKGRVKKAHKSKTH
Description: as §2, §3, §4, §5, §6

[19] = target: T10, UGT 1A7 (Homo sapiens, UniProt Q9HAW7); assay: Recombinant UGT panel, substrate utilization; format: biochemical; conditions: 2 hour incubation at 37° C., recombinant Supersomes
T10 construct: purchased BD Gentest; host or cells: insect cells (microsomes)
T10 sequence (Q9HAW7 26-530): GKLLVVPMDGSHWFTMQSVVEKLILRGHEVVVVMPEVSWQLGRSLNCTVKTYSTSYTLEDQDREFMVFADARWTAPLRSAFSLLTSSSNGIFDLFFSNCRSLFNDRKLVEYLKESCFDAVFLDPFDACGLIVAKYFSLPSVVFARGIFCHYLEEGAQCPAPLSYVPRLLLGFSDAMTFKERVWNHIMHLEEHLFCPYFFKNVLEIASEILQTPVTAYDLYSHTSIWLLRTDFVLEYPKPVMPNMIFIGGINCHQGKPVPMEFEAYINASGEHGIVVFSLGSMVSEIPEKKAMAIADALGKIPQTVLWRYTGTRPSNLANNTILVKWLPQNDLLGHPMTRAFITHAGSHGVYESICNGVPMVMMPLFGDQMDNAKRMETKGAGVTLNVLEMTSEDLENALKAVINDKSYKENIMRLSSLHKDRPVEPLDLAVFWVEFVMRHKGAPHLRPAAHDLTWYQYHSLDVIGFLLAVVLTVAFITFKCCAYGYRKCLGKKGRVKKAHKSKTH
Description: as §2, §3, §4, §5, §6

[20] = target: T11, UGT 1A6 (Homo sapiens, UniProt P19224); assay: Recombinant UGT panel, substrate utilization; format: biochemical; conditions: 2 hour incubation at 37° C., recombinant Supersomes
T11 construct: purchased BD Gentest; host or cells: insect cells (microsomes)
T11 sequence (P19224 27-532): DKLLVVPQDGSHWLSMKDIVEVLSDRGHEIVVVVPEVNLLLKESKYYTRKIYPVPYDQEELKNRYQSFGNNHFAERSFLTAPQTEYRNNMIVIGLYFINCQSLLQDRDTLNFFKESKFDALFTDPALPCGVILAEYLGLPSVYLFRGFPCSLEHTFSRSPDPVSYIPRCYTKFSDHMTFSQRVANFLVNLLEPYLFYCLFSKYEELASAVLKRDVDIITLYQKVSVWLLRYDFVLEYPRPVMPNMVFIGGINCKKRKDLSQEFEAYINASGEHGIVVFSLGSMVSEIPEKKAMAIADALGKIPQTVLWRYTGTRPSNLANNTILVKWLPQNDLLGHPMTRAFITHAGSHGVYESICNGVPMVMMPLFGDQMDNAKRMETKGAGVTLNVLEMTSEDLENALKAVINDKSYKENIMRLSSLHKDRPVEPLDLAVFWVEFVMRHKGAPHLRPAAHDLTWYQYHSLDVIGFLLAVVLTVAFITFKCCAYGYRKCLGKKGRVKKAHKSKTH
Description: as §2, §3, §4, §5, §6

## O=C(O)Cc1ccccc1Nc1c(Cl)cccc1Cl [Diclofenac]
[1]
  Isozymes Modulated: Inhibits most isozymes
[2]
  IC50: 232 µM
[3]
  IC50: 60 µM
[4]; diclofenac, 15-20 minutes at 37° C.
  inhibition of compound 3138 conversion in hepatocytes: inhibited

## N#Cc1nc2ccc(NCc3cccc(N)c3)cc2s1 [Compound 3165]
[5]
  utilization (activity) with rat liver microsomes: Activity was also seen
[6]
  utilization (activity) with mouse liver microsomes: Activity was also seen
[7]
  utilization (activity) with human liver microsomes versus human renal or intestinal microsomes: Activity was much higher for human liver microsomes
[8]
  % utilization of substrate by UGT 1A9: to a lesser extent
[9]
  utilization of substrate by UGT 1A4: only utilized by UGT 1A4

## Cc1cc(O)cc2sc(C#N)nc12 [Compound 3138]
[10]
  utilization by tissue microsomes compared with control 1A1 Supersomes: utilized much more of compound 3138 than the control 1A1 Supersomes
[4]; compound 3138, 15-20 minutes at 37° C.
  conversion of substrate by intact hepatocytes: Conversion of the PBI 3138 was seen
[11]
  % utilization of substrate by UGT 2B7: over 50%
[12]
  % utilization of substrate by UGT 1A1: over 50%
[13]
  utilization of substrate by UGT 1A3: detectable levels of utilization above background
[14]
  utilization of substrate by UGT 2B4: did not utilize either compound 3138 or 3478 to an appreciable extent
[8]
  % utilization of substrate by UGT 1A9: over 50%
[15]
  utilization of substrate by UGT 2B17: detectable levels of utilization above background
[16]
  utilization of substrate by UGT 2B15: detectable levels of utilization above background
[17]
  % utilization of substrate by UGT 1A10: over 50%
[9]
  utilization of substrate by UGT 1A4: did not utilize either compound 3138 or 3478 to an appreciable extent
[18]
  % utilization of substrate by UGT 1A8: over 50%
[19]
  utilization of substrate by UGT 1A7: detectable levels of utilization above background
[20]
  utilization of substrate by UGT 1A6: detectable levels of utilization above background
